Assay results as given in ChEMBL document CHEMBL1129374 (J Med Chem, 1996).

Key:
[1] = molecular target: T1, Folylpolyglutamate synthase, mitochondrial (Homo sapiens, UniProt Q05932); test: Compound was evaluated for the inhibitory activity against Folyl-polyglutamate synthase from CCRF-CEM human leukemia cells.; assay type: cell-based
T1 sequence (Q05932 whole entry): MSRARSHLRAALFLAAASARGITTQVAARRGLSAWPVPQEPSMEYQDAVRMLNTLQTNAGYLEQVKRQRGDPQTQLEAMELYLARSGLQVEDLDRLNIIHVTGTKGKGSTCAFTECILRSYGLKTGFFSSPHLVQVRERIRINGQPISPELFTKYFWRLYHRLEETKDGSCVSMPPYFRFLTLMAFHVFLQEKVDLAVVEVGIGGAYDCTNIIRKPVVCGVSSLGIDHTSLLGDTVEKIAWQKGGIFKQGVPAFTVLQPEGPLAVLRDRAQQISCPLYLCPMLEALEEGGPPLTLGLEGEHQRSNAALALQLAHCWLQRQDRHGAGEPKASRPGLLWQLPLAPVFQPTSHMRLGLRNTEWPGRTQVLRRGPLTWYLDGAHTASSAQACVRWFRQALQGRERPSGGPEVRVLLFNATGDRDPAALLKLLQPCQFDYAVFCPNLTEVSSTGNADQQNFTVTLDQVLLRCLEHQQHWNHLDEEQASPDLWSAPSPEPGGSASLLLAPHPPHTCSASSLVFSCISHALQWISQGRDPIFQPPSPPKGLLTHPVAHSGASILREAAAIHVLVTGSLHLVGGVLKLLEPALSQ

[2] = system: L1210; test: Compound was evaluated for the inhibition of L1210 murine leukemia cell growth.; assay type: functional, cell-based; conditions: Mus musculus
[3] = molecular target: T2, Dihydrofolate reductase (Mus musculus, UniProt P00375); test: compound was evaluated for the inhibitory activity against Dihydrofolate reductase in permeabilised L1210 cells.; assay type: cell-based
T2 sequence (P00375 whole entry): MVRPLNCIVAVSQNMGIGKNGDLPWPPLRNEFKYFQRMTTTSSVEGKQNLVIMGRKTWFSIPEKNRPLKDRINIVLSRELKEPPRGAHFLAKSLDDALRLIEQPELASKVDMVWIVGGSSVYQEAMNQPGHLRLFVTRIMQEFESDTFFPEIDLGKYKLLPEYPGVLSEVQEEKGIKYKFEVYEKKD

[4] = system: L1210; test: Compound was evaluated for the inhibition of L1210 murine leukemia cell growth.(In this study); conditions: Mus musculus
[5] = system: L1210; test: Compound was evaluated for the inhibition of L1210 murine leukemia cell growth.(From ref 12b); conditions: Mus musculus

| SMILES | IC50 [1] [µM] | IC50 [2] [µM] | IC50 [3] [µM] | IC50 [4] [µM] | IC50 [5] [µM] |
| --- | --- | --- | --- | --- | --- |
| CN(Cc1cnc2nc(N)nc(N)c2n1)c1ccc(C(=O)NC(Cc2cn(CC(=O)O)cn2)C(=O)O)cc1 (configuration not stated) | > 200 | 0.15 | 0.37 | – | – |
| CN(Cc1cnc2nc(N)nc(N)c2n1)c1ccc(C(=O)NC(Cc2cnc[nH]2)C(=O)O)cc1 (configuration not stated) | > 200 | 0.091 | 1.3 | – | – |
| Nc1nc2ncc(CNc3ccc(C(=O)NC(Cc4cnc[nH]4)C(=O)O)cc3)nc2c(=O)[nH]1 (configuration not stated) | > 200 | > 100 | > 100 | – | – |
| CN(Cc1cnc2nc(N)nc(N)c2n1)c1ccc(C(=O)N[C@@H](CCC(=O)O)C(=O)O)cc1 [METHOTREXATE] | 3.2 | – | – | 0.007 | 1.3 |
